Assay results as given in paper PMC3914206.

How the values were obtained:
Type in all cases: binding
Settings in all cases: Compound Concentration 10 µM
panel of 442 kinases [1] = target: T1, panel of 442 kinases (Homo sapiens, UniProt P42336, E545A)
T1 construct: purchased KINOMEscan
Excerpt: (§1) We assessed the selectivity of members of this scaffold using the KINOMEscan methodology across a near comprehensive panel of 442 kinases [[18,27]].

panel of 442 kinases [2] = target: T2, panel of 442 kinases (Homo sapiens, UniProt P21860)
T2 construct: purchased KINOMEscan
Excerpt: as §1

panel of 442 kinases [3] = target: T3, panel of 442 kinases (Homo sapiens, UniProt Q86V86)
T3 construct: purchased KINOMEscan
Excerpt: as §1

panel of 442 kinases [4] = target: T4, panel of 442 kinases (Homo sapiens, UniProt P49759)
T4 construct: purchased KINOMEscan
Excerpt: as §1

T2 sequence (P21860 20-1342): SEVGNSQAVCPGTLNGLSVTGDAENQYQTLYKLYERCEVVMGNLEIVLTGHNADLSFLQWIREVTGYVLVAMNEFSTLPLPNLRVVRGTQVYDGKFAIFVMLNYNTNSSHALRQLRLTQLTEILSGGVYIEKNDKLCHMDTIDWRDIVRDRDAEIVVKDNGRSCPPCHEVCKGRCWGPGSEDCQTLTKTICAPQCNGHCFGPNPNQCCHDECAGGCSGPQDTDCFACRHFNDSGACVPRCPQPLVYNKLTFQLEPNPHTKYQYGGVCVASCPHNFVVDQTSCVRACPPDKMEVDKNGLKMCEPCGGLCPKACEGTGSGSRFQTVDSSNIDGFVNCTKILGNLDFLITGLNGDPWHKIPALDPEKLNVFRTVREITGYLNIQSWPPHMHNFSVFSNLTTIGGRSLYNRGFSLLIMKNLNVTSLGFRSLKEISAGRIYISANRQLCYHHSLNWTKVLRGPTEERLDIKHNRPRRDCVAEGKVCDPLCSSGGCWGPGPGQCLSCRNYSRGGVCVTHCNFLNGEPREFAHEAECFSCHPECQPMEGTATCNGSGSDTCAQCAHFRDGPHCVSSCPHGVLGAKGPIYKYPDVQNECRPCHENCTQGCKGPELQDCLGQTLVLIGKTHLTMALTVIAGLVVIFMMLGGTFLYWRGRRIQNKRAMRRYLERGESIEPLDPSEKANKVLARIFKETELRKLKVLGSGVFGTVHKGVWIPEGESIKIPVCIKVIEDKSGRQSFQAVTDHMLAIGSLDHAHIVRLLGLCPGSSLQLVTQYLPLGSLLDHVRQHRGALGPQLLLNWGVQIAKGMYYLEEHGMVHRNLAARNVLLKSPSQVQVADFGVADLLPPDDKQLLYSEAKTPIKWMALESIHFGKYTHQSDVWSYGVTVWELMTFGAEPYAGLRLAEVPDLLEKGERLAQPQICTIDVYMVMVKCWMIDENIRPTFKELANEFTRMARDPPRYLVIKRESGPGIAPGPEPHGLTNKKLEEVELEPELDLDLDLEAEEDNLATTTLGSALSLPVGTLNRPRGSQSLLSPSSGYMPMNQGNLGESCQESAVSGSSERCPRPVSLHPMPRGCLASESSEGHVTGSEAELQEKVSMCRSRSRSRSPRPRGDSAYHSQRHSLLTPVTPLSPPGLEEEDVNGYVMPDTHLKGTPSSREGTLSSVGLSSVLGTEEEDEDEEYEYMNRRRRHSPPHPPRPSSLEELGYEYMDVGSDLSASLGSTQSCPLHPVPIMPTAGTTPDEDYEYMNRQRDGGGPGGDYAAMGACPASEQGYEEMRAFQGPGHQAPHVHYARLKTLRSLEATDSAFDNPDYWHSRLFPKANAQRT
T1 sequence (P42336 whole entry E545A): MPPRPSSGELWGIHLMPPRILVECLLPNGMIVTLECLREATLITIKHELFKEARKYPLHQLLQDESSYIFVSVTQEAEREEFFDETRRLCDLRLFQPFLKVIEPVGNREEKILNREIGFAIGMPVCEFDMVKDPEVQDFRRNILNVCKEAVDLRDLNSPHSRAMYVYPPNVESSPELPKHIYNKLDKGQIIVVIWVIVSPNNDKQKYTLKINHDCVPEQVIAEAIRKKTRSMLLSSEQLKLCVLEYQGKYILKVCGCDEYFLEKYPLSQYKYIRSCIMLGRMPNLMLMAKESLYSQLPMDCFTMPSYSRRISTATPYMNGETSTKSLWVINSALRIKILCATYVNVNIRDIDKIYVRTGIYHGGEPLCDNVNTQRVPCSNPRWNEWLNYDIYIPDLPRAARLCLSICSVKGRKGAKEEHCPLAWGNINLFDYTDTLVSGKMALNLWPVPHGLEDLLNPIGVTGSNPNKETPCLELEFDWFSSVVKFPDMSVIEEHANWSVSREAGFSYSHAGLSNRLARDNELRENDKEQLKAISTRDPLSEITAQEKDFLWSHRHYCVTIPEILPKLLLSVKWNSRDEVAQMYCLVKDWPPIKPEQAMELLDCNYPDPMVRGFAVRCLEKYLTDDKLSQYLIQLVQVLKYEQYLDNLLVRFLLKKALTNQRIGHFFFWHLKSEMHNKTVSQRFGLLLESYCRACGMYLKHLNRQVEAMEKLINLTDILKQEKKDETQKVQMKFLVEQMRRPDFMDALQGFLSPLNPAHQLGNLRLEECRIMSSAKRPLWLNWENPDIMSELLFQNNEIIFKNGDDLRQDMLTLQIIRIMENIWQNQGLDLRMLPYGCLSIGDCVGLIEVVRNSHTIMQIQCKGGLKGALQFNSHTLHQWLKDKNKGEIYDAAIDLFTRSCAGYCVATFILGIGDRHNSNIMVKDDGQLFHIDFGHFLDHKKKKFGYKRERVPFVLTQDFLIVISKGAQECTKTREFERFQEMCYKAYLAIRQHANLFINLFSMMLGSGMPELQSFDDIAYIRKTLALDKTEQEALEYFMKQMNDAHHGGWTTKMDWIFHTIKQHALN
T4 sequence (P49759 whole entry): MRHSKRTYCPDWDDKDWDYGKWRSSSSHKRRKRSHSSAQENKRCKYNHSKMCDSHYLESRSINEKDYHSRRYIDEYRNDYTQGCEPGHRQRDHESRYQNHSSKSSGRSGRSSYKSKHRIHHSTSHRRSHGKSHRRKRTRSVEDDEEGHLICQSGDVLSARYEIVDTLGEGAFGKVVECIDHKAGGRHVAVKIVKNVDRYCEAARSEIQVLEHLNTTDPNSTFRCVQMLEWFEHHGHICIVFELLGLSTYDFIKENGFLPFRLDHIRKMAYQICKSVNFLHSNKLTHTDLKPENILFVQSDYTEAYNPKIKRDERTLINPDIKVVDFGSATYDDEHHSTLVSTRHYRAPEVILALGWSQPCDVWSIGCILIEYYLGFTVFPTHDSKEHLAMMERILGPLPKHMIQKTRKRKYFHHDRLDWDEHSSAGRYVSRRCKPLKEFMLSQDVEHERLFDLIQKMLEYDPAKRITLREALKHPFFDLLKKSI

Row | SMILES | KINOMEscan: PIK3CA(E545A) (panel of 442 kinases [1]) | KINOMEscan: ERBB3 (panel of 442 kinases [2]) | KINOMEscan: PIM3 (panel of 442 kinases [3]) | KINOMEscan: CLK1 (panel of 442 kinases [4])
1 | COc1cc(C(=O)N2CCC(N3CCN(C)CC3)CC2)ccc1Nc1ncc2c(n1)N(C)c1ccccc1C(=O)N2C [15 (LRRK2-IN-1)] | 98 | 100 | 88 | 28
2 | CCOc1cc(C(=O)N2CCC(N3CCN(C)CC3)CC2)ccc1Nc1ncc2c(n1)N(C1CCCC1)c1ccccc1C(=O)N2C [Compound 26] | 91 | 100 | 100 | 100
3 | COc1cc(C(=O)N2CCC(N3CCN(C)CC3)CC2)ccc1Nc1ncc2c(n1)N1CCc3cccc(c31)C(=O)N2C [Compound 24] | 68 | – | 67 | 11
4 | COc1cc(C(=O)N2CCC(N3CCN(C)CC3)CC2)ccc1Nc1ncc2c(n1)N(C1CCCC1)c1ccccc1C(=O)N2C [Compound 25, 11-cyclopentyl-2-((2-methoxy-4-(4-(4-methylpiperazin-1-yl)piperidine-1-carbonyl)phenyl)amino)-5-methyl-5H-benzo[e]pyrimido[5,4-b][1,4]diazepin-6(11H)-one] | 85 | 100 | 78 | 100
